{"source": "patent US20160067301A1", "about": "“ANTAGONISM OF ABCG4, LYN KINASE, AND C-CBL E3 LIGASE TO INCREASE PLATELET COUNT AS THERAPY FOR THROMBOCYTOPENIA” (The Trustees of Columbia University in the City of New York, priority 2013, published 2016)", "key": {"[1]": {"test_system": "cell surface c-MPL on MkPs", "experiment": "Cell surface c-MPL expression on MkPs by flow cytometry", "format": "cell-based, mouse", "conditions": "for cell surface c-MPL levels in MkPs: bone marrow progenitor cells from WT or Abcg4−/− mice, TPO 10 ng/ml, 2 hrs, Tolimidone 10 μM, CRIN-1 1 μM (FIG. 18)", "method": "After harvesting bone marrow progenitor cells, RBCs were lysed, and the cells were resuspended in FACS buffer, Bone marrow cells were stained for MkPs as stated above, and c-MPL or isotype control antibodies were included. Cells were then washed and stained with a fluorescently conjugated secondary rabbit-specific antibody to detect the antibody to c-MPL for a further 30 min on ice. Following this, the cells were washed, resuspended in FACS buffer and run on an LSRII flow cytometer. MEPs were identified as Lin^−c-Kit^+CD16/CD32^loCD34^loCD41^−, and MkPs were identified as Lin^−c-Kit^+CD16/CD32^loCD34^loCD41^+."}, "[2]": {"test_system": "c-CBL phosphorylation in MkPs", "experiment": "c-CBL tyrosine phosphorylation in MkPs in response to TPO (phospho-flow cytometry)", "format": "cell-based, mouse", "conditions": "for c-CBL phosphorylation: 5 min TPO, CD 3 mM or CD-chol 30 min, rHDL 20 μg apoA-I ml-1 2 h, SU6656 10 μg ml-1 2 h", "method": "Bone marrow progenitor cells were stimulated with TPO at the indicated concentration for the specified period of time at 37° C. and then immediately diluted with ice-cold buffer and placed on ice to prevent further changes in phosphorylation. Cells were then centrifuged at 800 g for 2 min, and the pellet was resuspended in BD fix buffer (BD Biosciences) for 10 min on ice. The cells were washed with BD flow cytometry staining buffer, centrifuged, and then resuspended in BD cytofix/perm buffer III for 20 min. After this, the cells were washed and resuspended in BD staining buffer and incubated with lineage (Sca1, CD127, CD45R, CD19, CD11b, CD3e, TER-119, CD2, CD8, CD4 and Ly-6G, all FITC; eBioscience) and progenitor cell markers (c-Kit, CD16/CD32 (FcγRII/III), CD34, CD41 and antibody to p-c-CBL (Tyr700 human, Tyr698 mouse; BD Biosciences)) or an isotype control for 30 min on ice. The cells were then washed, resuspended in FACS buffer and run on an LSRII. The amount of phosphorylated c-Cbl was normalized against that of isotype control staining."}, "WT and Abcg4−/− mice": {"test_system": "WT and Abcg4−/− mice", "experiment": "Platelet count after a single TPO injection in WT and Abcg4−/− mice", "format": "in vivo, mouse", "conditions": "for increase in the number of platelets: single dose TPO 50 μg per kg body weight (FIG. 2i)", "source_text": "The Institutional Animal Care and Use Committee of Columbia University approved all the mouse studies. Abcg4−/−, Abcg1−/− Abca1−/− and Abcg1−/− mice in a C57BL/6J background were created as described and used in this study. Abcg4−/− mice were backcrossed onto C57BL/6J mice for more than ten generations. WT (C57BL/6J) and Ldlr−/− (B6.129S7-Ld1rtm1Her) mice were obtained from The Jackson Laboratory (Bar Harbor, Me.). For bone marrow transplantation studies, bone marrow from WT, Abcg4−/−, Abcg1−/− Abca1−/− or Abcg1−/− mice was transplanted into WT or Ldlr−/− recipient mice as described. For atherosclerosis studies, bone marrow-transplanted recipient mice were fed a Western diet (TD88137, Harlan Teklad) for the indicated period of time. Bone marrow-specific retro-viral expression of murine c-MPL^W515L was established as described44 using WT C57BL/6J mice as the recipient and WT C57BL/6J or Abcg4−/− mice as the bone marrow donor. Where indicated, vehicle (saline), rHDL or TPO (R&D Systems) was injected at the indicted dose into the mice through the tail vein. rHDL (CSL-111) was provided by CSL Behring AG, Bern, Switzerland; CSL-111 is composed of human apoA-I and phosphatidylcholine from soy bean in a ratio of 1:150. […]\nComplete blood counts were quantified using whole blood collected from tail bleeding. A FORCYTE Veterinary Hematology Analyzer (Oxford Science, Inc.) was used for the analysis."}, "bone marrow HSPCs": {"test_system": "bone marrow HSPCs", "experiment": "MK-CFU megakaryocyte colony-forming assay", "format": "cell-based, mouse", "conditions": "ABCG4-deficient cells (FIG. 13c)", "method": "Primary bone marrow HSPCs obtained by FACS were plated in methylcellulose-based medium (5,000 cells per assay) containing TPO (50 ng interleukin-6 (IL-6) (20 ng ml^−1) and IL-3 (10 ng ml^−1) and incubated for 8 d according to the manufacturer's protocol (Megacult-C, Stemcell Technologies). Cultures were fixed, and megakaryocyte colonies were visualized by staining for acetylcholinesterase activity. Nuclei were counterstained with Harris' hematoxylin. Colonies containing more than three megakaryocytes were scored as MK-CFUs."}, "MkPs": {"test_system": "MkPs", "experiment": "MkP proliferation (EdU incorporation, flow cytometry)", "format": "cell-based, mouse", "conditions": "16 h with TPO"}, "[3]": {"conditions": "WT MkPs, with TPO 30 ng ml-1, CD 3 mM or CD-chol 30 min, rHDL 20 μg ml-1, MG132 10 μM 2 h, SU6656 10 μg ml-1 2 h"}, "[4]": {"conditions": "Abcg4−/− MkPs, with TPO 30 ng ml-1, CD 3 mM or CD-chol 30 min, rHDL 20 μg ml-1, SU6656 10 μg ml-1 2 h"}}, "note": "Where a SMILES comes first, the peptide text is derived from it. The star is where a group is joined. Cbz = O=C(OCc1ccccc1)*", "data": [{"compound": "COc1c2c(cc3c1C(CN)N(C)CC3)OCO2", "note": "(stereo not shown) [CRIN-1]", "values": [{"measurement": "cell surface c-MPL levels in MkPs", "setting": "[1]", "value": "increases"}]}, {"compound": "CC(C)C[C@@H](C=O)NC(=O)[C@H](CC(C)C)NC(=O)[C@H](CC(C)C)NC(=O)OCc1ccccc1", "note": "[MG132] (Cbz-Leu-Leu-Leu-aldehyde)", "values": [{"measurement": "cell surface c-MPL expression", "setting": "[1]; [3]", "value": "increased c-MPL expression to a level similar to that in Abcg4−/− cells"}]}, {"compound": "CN(C)S(=O)(=O)c1ccc2c(c1)/C(=C/c1cc3c([nH]1)CCCC3)C(=O)N2", "note": "[SU6656]", "values": [{"measurement": "cell surface c-MPL expression", "setting": "[1]; [4]", "value": "increased cell surface expression of c-MPL"}, {"measurement": "cell surface c-MPL expression", "setting": "[1]; [3]", "value": "increased cell surface expression of c-MPL"}, {"measurement": "c-CBL phosphorylation", "setting": "[2]; Abcg4−/− MkPs", "value": "markedly decreased c-CBL phosphorylation"}, {"measurement": "difference in response to TPO between WT and Abcg4−/− MkPs (c-CBL phosphorylation, c-MPL expression)", "setting": "[2]; SU6656 10 μg ml-1 for 2 h", "value": "abolished the difference in response to TPO"}, {"measurement": "c-CBL phosphorylation", "setting": "[2]; WT MkPs", "value": "markedly decreased c-CBL phosphorylation"}]}, {"compound": "TPO: Thrombopoietin (R&D Systems), growth factor regulating megakaryocyte and platelet development", "values": [{"measurement": "increase of platelet count after single injection of TPO, compared with wild type", "setting": "WT and Abcg4−/− mice; Abcg4−/− mice (FIG. 17)", "value": "much more pronounced"}, {"measurement": "increase in the number of platelets", "setting": "WT and Abcg4−/− mice; Abcg4−/− mice", "value": 2.1, "unit": "fold"}, {"measurement": "increase in the number of platelets", "setting": "WT and Abcg4−/− mice; WT mice", "value": 1.4, "unit": "fold"}, {"measurement": "platelet count after single injection of TPO", "setting": "WT and Abcg4−/− mice; wild type mice (FIG. 17)", "value": "induced increase of platelet count"}]}, {"compound": "Tolimidone", "values": [{"measurement": "cell surface c-MPL expression", "setting": "[1]; Abcg4−/− MkPs from hypercholesterolemic (WTD-fed) Ldlr−/− recipient mice, 10 μM, TPO, 2 h", "value": "reduced cell surface c-MPL expression"}, {"measurement": "cell surface expression of c-MPL", "setting": "[1]; Abcg4−/− MkPs from normocholesterolemic mice (FIG. 14)", "value": "completely reversed the increased cell surface expression of c-MPL"}, {"measurement": "cell surface c-MPL expression", "setting": "[1]; WT MkPs from hypercholesterolemic (WTD-fed) Ldlr−/− recipient mice, 10 μM, TPO, 2 h", "value": "reduced cell surface c-MPL expression"}, {"measurement": "cell surface c-MPL levels in MkPs", "setting": "[1]", "value": "decreases"}]}, {"compound": "methyl-β-cyclodextrin", "values": [{"measurement": "cell surface c-MPL expression", "setting": "[1]; [4]", "value": "significantly reduced to levels similar to those in cyclodextrin-treated WT MkPs"}, {"measurement": "number of megakaryocyte colonies", "setting": "bone marrow HSPCs", "value": "reversed the increase in the number of magakaryecyte colonies"}, {"measurement": "MkP proliferation (EdU incorporation)", "setting": "MkPs; Abcg4−/− MkPs, CD 3 mM or CD-chol 30 min pretreatment, rHDL 20 μg ml-1 16 h", "value": "significantly reduced to levels similar to those in cyclodextrin-treated WT MkPs"}, {"measurement": "MkP proliferation (EdU incorporation)", "setting": "MkPs; Lyn−/− MkPs, cholesterol loading or depletion treatments", "value": "unresponsive"}, {"measurement": "MkP proliferation (EdU incorporation)", "setting": "MkPs; WT MkPs, CD 3 mM or CD-chol 30 min pretreatment, rHDL 20 μg ml-1 16 h", "value": "decreased the proliferation"}, {"measurement": "c-CBL phosphorylation", "setting": "[2]; Abcg4−/− MkPs", "value": "increased c-CBL phosphorylation"}, {"measurement": "c-CBL phosphorylation", "setting": "[2]; WT MkPs", "value": "increased c-CBL phosphorylation"}]}]}
